According to the supplement of paper PMC10307832:

Legend:
Experiment in all cases: relative viability (nuclei count vs DMSO), 5 days (fraction); higher = more cells survive
ABC-1 = system: ABC-1
In short: (§1)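 Relative viability is defined as nuclei in treated wells over nuclei in vehicle wells. Duplicate plates were run and medians reported. Lung cancer cell lines in 1536-well plates were dosed by pin tool one day after seeding, with one drug or with a fixed anchor-drug dose plus five library-drug doses (not always all listed) in √10 steps, and nuclei were counted after 5 days.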

CAL-12T = system: CAL-12T
In short: as §1

ChaGo-K-1 = system: ChaGo-K-1
In short: as §1

HCC-366 = system: HCC-366
In short: as §1

HCC-78 = system: HCC-78
In short: as §1

LC-2-ad = system: LC-2-ad
In short: as §1

LOU-NH91 = system: LOU-NH91
In short: as §1

LU99A = system: LU99A
In short: as §1

NCI-H1395 = system: NCI-H1395
In short: as §1

NCI-H1651 = system: NCI-H1651
In short: as §1

NCI-H1755 = system: NCI-H1755
In short: as §1

NCI-H1793 = system: NCI-H1793
In short: as §1

NCI-H1944 = system: NCI-H1944
In short: as §1

NCI-H2087 = system: NCI-H2087
In short: as §1

NCI-H2170 = system: NCI-H2170
In short: as §1

NCI-H2228 = system: NCI-H2228
In short: as §1

NCI-H2405 = system: NCI-H2405
In short: as §1

NCI-H3122 = system: NCI-H3122
In short: as §1

NCI-H460 = system: NCI-H460
In short: as §1

PC-3 [JPC-3] = system: PC-3 [JPC-3]
In short: as §1

RERF-LC-KJ = system: RERF-LC-KJ
In short: as §1

UMC-11 = system: UMC-11
In short: as §1

With Nc1ccn([C@@H]2O[C@H](CO)[C@@H](O)[C@@H]2O)c(=O)n1 [Cytarabine] + Cc1nc(Nc2ncc(C(=O)Nc3c(C)cccc3Cl)s2)cc(N2CCN(CCO)CC2)n1 [Dasatinib] (partner 0.075 µM) the relative viability (ABC-1; first compound 0.005 µM) was 0.501, the relative viability (ABC-1; first compound 0.01581 µM) was 0.492 and the relative viability (ABC-1; first compound 0.05 µM) was 0.564. The relative viability (ABC-1; first compound 0.1581 µM) was 0.473, the relative viability (ABC-1; first compound 0.5 µM) was 0.332 and the relative viability (CAL-12T; first compound 0.005 µM) was 0.302. For the same compound, the relative viability (CAL-12T; first compound 0.01581 µM) was 0.306, the relative viability (CAL-12T; first compound 0.05 µM) was 0.447 and the relative viability (CAL-12T; first compound 0.1581 µM) was 0.284. The relative viability (CAL-12T; first compound 0.5 µM) was 0.109, the relative viability (ChaGo-K-1; first compound 0.005 µM) was 0.518 and the relative viability (ChaGo-K-1; first compound 0.01581 µM) was 0.347. For the same compound, the relative viability (ChaGo-K-1; first compound 0.05 µM) was 0.384, the relative viability (ChaGo-K-1; first compound 0.1581 µM) was 0.182 and the relative viability (ChaGo-K-1; first compound 0.5 µM) was 0.184. The relative viability (HCC-366; first compound 0.005 µM) was 0.573, the relative viability (HCC-366; first compound 0.01581 µM) was 0.402 and the relative viability (HCC-366; first compound 0.05 µM) was 0.424. For the same compound, the relative viability (HCC-366; first compound 0.1581 µM) was 0.148, the relative viability (HCC-366; first compound 0.5 µM) was 0.0563 and the relative viability (HCC-78; first compound 0.005 µM) was 0.585. For the same compound, the relative viability (HCC-78; first compound 0.01581 µM) was 0.363, the relative viability (HCC-78; first compound 0.05 µM) was 0.27 and the relative viability (HCC-78; first compound 0.1581 µM) was 0.228. It also gave a relative viability (HCC-78; first compound 0.5 µM) of 0.208, a relative viability (LC-2-ad; first compound 0.005 µM) of 0.358 and a relative viability (LC-2-ad; first compound 0.01581 µM) of 0.308. For the same compound, the relative viability (LC-2-ad; first compound 0.05 µM) was 0.347, the relative viability (LC-2-ad; first compound 0.1581 µM) was 0.225 and the relative viability (LC-2-ad; first compound 0.5 µM) was 0.214. The relative viability (LOU-NH91; first compound 0.005 µM) was 0.542, the relative viability (LOU-NH91; first compound 0.01581 µM) was 0.555 and the relative viability (LOU-NH91; first compound 0.05 µM) was 0.422. For the same compound, the relative viability (LOU-NH91; first compound 0.1581 µM) was 0.416, the relative viability (LOU-NH91; first compound 0.5 µM) was 0.398 and the relative viability (LU99A; first compound 0.005 µM) was 0.563. It also gave a relative viability (LU99A; first compound 0.01581 µM) of 0.647, a relative viability (LU99A; first compound 0.05 µM) of 0.58 and a relative viability (LU99A; first compound 0.1581 µM) of 0.578. It also gave a relative viability (LU99A; first compound 0.5 µM) of 0.364, a relative viability (NCI-H1395; first compound 0.005 µM) of 0.385 and a relative viability (NCI-H1395; first compound 0.01581 µM) of 0.34. For the same compound, the relative viability (NCI-H1395; first compound 0.05 µM) was 0.374, the relative viability (NCI-H1395; first compound 0.1581 µM) was 0.319 and the relative viability (NCI-H1395; first compound 0.5 µM) was 0.282. The relative viability (NCI-H1651; first compound 0.005 µM) was 0.406, the relative viability (NCI-H1651; first compound 0.01581 µM) was 0.457 and the relative viability (NCI-H1651; first compound 0.05 µM) was 0.397. For the same compound, the relative viability (NCI-H1651; first compound 0.1581 µM) was 0.179, the relative viability (NCI-H1651; first compound 0.5 µM) was 0.205 and the relative viability (NCI-H1755; first compound 0.005 µM) was 0.439. For the same compound, the relative viability (NCI-H1755; first compound 0.01581 µM) was 0.316, the relative viability (NCI-H1755; first compound 0.05 µM) was 0.372 and the relative viability (NCI-H1755; first compound 0.1581 µM) was 0.257. The relative viability (NCI-H1755; first compound 0.5 µM) was 0.222, the relative viability (NCI-H1793; first compound 0.005 µM) was 0.364 and the relative viability (NCI-H1793; first compound 0.01581 µM) was 0.37. For the same compound, the relative viability (NCI-H1793; first compound 0.05 µM) was 0.387, the relative viability (NCI-H1793; first compound 0.1581 µM) was 0.257 and the relative viability (NCI-H1793; first compound 0.5 µM) was 0.191. It also gave a relative viability (NCI-H1944; first compound 0.005 µM) of 0.177, a relative viability (NCI-H1944; first compound 0.01581 µM) of 0.123 and a relative viability (NCI-H1944; first compound 0.05 µM) of 0.117. It also gave a relative viability (NCI-H1944; first compound 0.1581 µM) of 0.0903, a relative viability (NCI-H1944; first compound 0.5 µM) of 0.0942 and a relative viability (NCI-H2087; first compound 0.005 µM) of 0.747. It also gave a relative viability (NCI-H2087; first compound 0.01581 µM) of 0.712, a relative viability (NCI-H2087; first compound 0.05 µM) of 0.82 and a relative viability (NCI-H2087; first compound 0.1581 µM) of 0.265. The relative viability (NCI-H2087; first compound 0.5 µM) was 0.233, the relative viability (NCI-H2170; first compound 0.005 µM) was 0.576 and the relative viability (NCI-H2170; first compound 0.01581 µM) was 0.589. For the same compound, the relative viability (NCI-H2170; first compound 0.05 µM) was 0.533, the relative viability (NCI-H2170; first compound 0.1581 µM) was 0.244 and the relative viability (NCI-H2170; first compound 0.5 µM) was 0.241. For the same compound, the relative viability (NCI-H2228; first compound 0.005 µM) was 0.299, the relative viability (NCI-H2228; first compound 0.01581 µM) was 0.158 and the relative viability (NCI-H2228; first compound 0.05 µM) was 0.159. For the same compound, the relative viability (NCI-H2228; first compound 0.1581 µM) was 0.0724, the relative viability (NCI-H2228; first compound 0.5 µM) was 0.0511 and the relative viability (NCI-H2405; first compound 0.005 µM) was 0.206. For the same compound, the relative viability (NCI-H2405; first compound 0.01581 µM) was 0.17, the relative viability (NCI-H2405; first compound 0.05 µM) was 0.167 and the relative viability (NCI-H2405; first compound 0.1581 µM) was 0.144. It also gave a relative viability (NCI-H2405; first compound 0.5 µM) of 0.146, a relative viability (NCI-H3122; first compound 0.005 µM) of 0.807 and a relative viability (NCI-H3122; first compound 0.01581 µM) of 0.76. For the same compound, the relative viability (NCI-H3122; first compound 0.05 µM) was 0.789, the relative viability (NCI-H3122; first compound 0.1581 µM) was 0.349 and the relative viability (NCI-H3122; first compound 0.5 µM) was 0.17. For the same compound, the relative viability (NCI-H460; first compound 0.005 µM) was 0.394, the relative viability (NCI-H460; first compound 0.01581 µM) was 0.259 and the relative viability (NCI-H460; first compound 0.05 µM) was 0.105. For the same compound, the relative viability (NCI-H460; first compound 0.1581 µM) was 0.0311, the relative viability (NCI-H460; first compound 0.5 µM) was 0.0213 and the relative viability (PC-3 [JPC-3]; first compound 0.005 µM) was 0.952. It also gave a relative viability (PC-3 [JPC-3]; first compound 0.01581 µM) of 0.884, a relative viability (PC-3 [JPC-3]; first compound 0.05 µM) of 1.01 and a relative viability (PC-3 [JPC-3]; first compound 0.1581 µM) of 0.63. The relative viability (PC-3 [JPC-3]; first compound 0.5 µM) was 0.603, the relative viability (RERF-LC-KJ; first compound 0.005 µM) was 0.689 and the relative viability (RERF-LC-KJ; first compound 0.01581 µM) was 0.646. The relative viability (RERF-LC-KJ; first compound 0.05 µM) was 0.524, the relative viability (RERF-LC-KJ; first compound 0.1581 µM) was 0.409 and the relative viability (RERF-LC-KJ; first compound 0.5 µM) was 0.281. The relative viability (UMC-11; first compound 0.005 µM) was 0.279, the relative viability (UMC-11; first compound 0.01581 µM) was 0.298 and the relative viability (UMC-11; first compound 0.05 µM) was 0.379. The relative viability (UMC-11; first compound 0.1581 µM) was 0.2 and the relative viability (UMC-11; first compound 0.5 µM) was 0.169.
